Results from publication PMC3174355 (Journal of medicinal chemistry, 2011).

Target: Rat nNOS (Rattus norvegicus, UniProt P29476)
Assay: NOS inhibition assay, Ki for rat nNOS
Assay type: biochemical

Row | increase in nNOS potency (8a vs 1b (m-chloro for m-fluoro)) | lower potency for rat nNOS (8b vs 8a) | SMILES
1 | 1.3 fold |  | Cc1cc(N)nc(C[C@@H]2CNC[C@@H]2OCCNCC(F)(F)c2cccc(Cl)c2)c1 [Compound 8a, 6-(((3R,4R)-4-(2-((2,2-Difluoro-2-(3-chlorophenyl)ethyl)amino)ethoxy)pyrrolidin-3-yl)methyl)-4-methylpyridin-2-amine]
2 |  | 2 fold | Cc1cc(N)nc(C[C@@H]2CNC[C@@H]2OCCNCC(F)(F)c2ccccc2Cl)c1 [Compound 8b, 6-(((3R,4R)-4-(2-((2,2-Difluoro-2-(2-chlorophenyl)ethyl)amino)ethoxy)pyrrolidin-3-yl)methyl)-4-methylpyridin-2-amine]
